Test results published in US20130096160A1, “ARYLTHIAZOLYL PIPERIDINES AND RELATED COMPOUNDS AS MODULATORS OF SURVIVAL MOTOR NEURON (SMN) PROTEIN PRODUCTION” (Secretary, Department of Health and Human Services, priority 2010, published 2013).

Tested on: SMN2-luciferase reporter
Assay: SMN2-luciferase reporter qHTS assay
Type: cell-based, human
Set-up: key to Curve Class: A curve class of 1.1 is a full agonist/antagonist; a curve class of 4 indicates the compound is inactive
Conditions: for Curve Class: agonist/antagonist character of the concentration-response, lower values = more significant concentration-response; for Increased SMN2 activity: percent increase (or decrease) in SMN2 levels compared to control in which no test compound is added
Excerpt: A cell-based quantitative high throughput screening (qHTS) assay is used to identify compounds able to increase SMN production. The assay uses a SMN2-luciferase reporter to determine if exon 7 of the SMN gene is expressed, which correlates with increased full-length SMN production from the SMN2 gene. As controls, a homologue SMN1-luciferase reporter cell line looks for variations in expression of the SMN1 gene and a cell line with just the luciferase reporter looks at the capacity of the compounds to inhibit luciferase. In addition, increments in SMN production by lead compounds were confirmed by Western-Blot analysis using SMA patient fibroblasts.
For the qHTS assay, concentration-response profiles are generated at the primary-screen level for each library compound to minimize the number of false positives. A dilution series consisting of seven points separated by five-fold concentration differences is prepared for each compound, yielding a concentration series that spans a range of about four orders of magnitude, for example from a high concentration of 50 micromolar to a low concentration of 3.2 nanomolar and providing adequate data for fitting to a Hill equation. For the assay, the SMN2 reporter cell line was plated at a density of ˜2000 cells/well in complete media (phenol red free DMEM, 10% detacl calf serum, and 1× pen/strep), in 1536 well white solid bottom tissue culture treated plates (Greiner). Cells were allowed to adhere and recover at 37 C in 5% CO2 for 10-12 hours. Compounds were added to the plates by a Pintool (Kalypsys) at a volume of 23 nl/well. Cells were incubated in the presence of compounds for 2 days at 37 C in 5% CO2. In order to quantify luciferase reporter levels, 3 ul/well of OneGlo (Promega) was added to each well and incubated at room temperature for 10 minutes. Luminescence from the reporter in each well is measured using a Viewlux CCD based imager (Perkin Elmer) with an integration time of 30 seconds and a binning of 2× in luminescence mode. Sodium butyrate was used as the positive control compound for luciferase induction and a column of 32 wells of 9.2 mM compound on each plate was used to monitor assay performance.
The SMN reporters used herein are modified from those previously described (M. L. Zhang, C. L. Lorson, E. J. Androphy and J. Zhou, An in vivo reporter system for measuring increased inclusion of exon 7 in SMN2 mRNA: potential therapy of SMA, Gene Ther 8 (2001), pp. 1532-1538.)
The sequence of the SMN1 reporter vector used herein is given in SEQ ID NO.:1, while that of the SMN2 reporter vector is given in SEQ ID NO.:2.
Each of the SMN reporters is constructed from three separate DNA fragments: (1) an SMN promotor sequence from the transcriptional reporter p 4.0T (SMN1) or p3.4C (SMN2) described in Monani, et al. Biochimica et Biophysica Acta 1445 (1999) 330-336; (2) a modification of the firefly luciferase splicing reporter for SMN1 or SMN2 described by Zhang et al; and (3) a 744 bp SMN cDNA fragment.
The 3.7 kB SMN1 promoter fragment is obtained by restriction of p4.0T with BglII and SacII. A 3.4 kB SMN2 promoter fragment is obtained by restriction of p3.4C with KpnI and SacII; a 300 bp BglII/KpnI fragment from p4.0T is then added to the 3.4 kB SMN2 promoter fragment to yield the final 3.7 kB SMN2 promoter fragment.
The modified SMN1 and SMN2 firefly luciferase splicing reporters are obtained by removing 4 kB of intron 6 in the original reporter system by restriction with SmaI/Swa followed by religation of the reporter. A 4 kB luciferase splicing reporter is then obtaind by digestion with XhoI and NotI.
Ths SMN cDNA fragment is obtained by generating the productof a polymerase chain reaction (PCR) on a cDNA preparation using […] (SEQ ID NO:3) as the forward primer and Tatctcgagtggtccagaaggaaatggaggcagcc (SEQ ID NO:4) as the reverse primer. The PCR product is then digested with XhoI and SacII. […]

## CC(=O)N1CCN(c2nc(-c3ccc(Br)cc3)cs2)CC1 [Example 110, 1-(4-(4-(4-Bromophenyl)Thiazol-2-yl)Piperazin-1-yl)Ethanone]
  Curve Class: 1.1
  Increased SMN2 activity: 234.5%

## COc1cc(OC)cc(-c2csc(N3CCC(C(N)=O)CC3)n2)c1 [Example 85, 1-(4-(3,5-Dimethoxyphenyl)Thiazol-2-yl)Piperidine-4-Carboxamide]
  Curve Class: 1.4
  Increased SMN2 activity: 44.77%

## CN(C)c1cccc(-c2nnc(N3CCC(C(N)=O)CC3)s2)c1 [Example 132, 1-(5-(3-(Dimethylamino)Phenyl)-1,3,4-Thiadiazol-2-yl)Piperidine-4-Carboxamide]
  Curve Class: 1.1
  Increased SMN2 activity: 448.5%

## CN(C)c1cccc(-c2cnc(N3CCC(c4ncc[nH]4)CC3)s2)c1 [Example 136, 3-(2-(4-(1H-Imidazol-2-yl)Piperidin-1-yl)Thiazol-5-yl)-N,N-Dimethylaniline]
  Curve Class: 1.1
  Increased SMN2 activity: 188.2%

## O=C(C1CCN(c2nc(-c3ccc(Br)cc3)cs2)CC1)N1CCOCC1 [Example 74, (1-(4-(4-Bromophenyl)Thiazol-2-yl)Piperidin-4-yl)(Morpholino)Methanone]
  Curve Class: 2.2
  Increased SMN2 activity: 77.48%

## CC(C)Oc1cccc(-c2csc(N3CCC(C(N)=O)CC3)n2)c1 [Example 107, 1-(4(3-Isopropoxyphenyl)Thiazol-2-yl)Piperidine-4-Carboxamide]
  Curve Class: 1.1
  Increased SMN2 activity: 605.6%

## CCOC(=O)C1CCN(c2nc(-c3ccc(Br)cc3)cs2)CC1 [Example 44, Ethyl 1-(4-(4-Bromophenyl)Thiazol-2-yl)Piperidine-4-Carboxylate]
  Curve Class: 1.1
  Increased SMN2 activity: 550.3%

## CN(C)c1cccc(-c2ncc(F)c(N3CCC(C(N)=O)CC3)n2)c1 [Example 152, 1-(2-(3-(Dimethylamino)Phenyl)-5-Fluoropyrimidin-4-yl)Piperidine-4-Carboxamide]
  Curve Class: 1.1
  Increased SMN2 activity: 141.8%

## NC(=O)C1CCN(c2nc(-c3cccc(F)c3)cs2)CC1 [Example 33, 1-(4-(3-Fluorophenyl)Thiazol-2-yl)Piperidine-4-Carboxamide]
  Curve Class: 2.2
  Increased SMN2 activity: 64%

## NC(=O)C1CCN(c2nc(-c3cccc(Br)c3)cs2)CC1 [Example 26, 1-(4-(3-Bromophenyl)Thiazol-2-yl)Piperidine-4-Carboxamide]
  Curve Class: 2.2
  Increased SMN2 activity: 57.55%

## CN(C)C(=O)C1CCN(c2nc(-c3ccc(Br)cc3)cs2)CC1 [Example 71, 1-(4-(4-Bromophenyl)Thiazol-2-yl)-N,N-Dimethylpiperidine-4-Carboxamide]
  Curve Class: 2.4
  Increased SMN2 activity: 42.71%

## CC(C)Oc1cccc(-c2ccnc(N3CCC(C(N)=O)CC3)n2)c1 [Example 127, 1-(4-(3-Isopropoxyphenyl)Pyrimidin-2-yl)Piperidine-4-Carboxamide]
  Curve Class: 1.1
  Increased SMN2 activity: 298.225%

## NC(=O)C1CCN(c2nc(-c3ccc(N4CCCCC4)nc3)cs2)CC1 [Example 60, 1-(4-(6-(Piperidin-1-yl)Pyridin-3-yl)Thiazol-2-yl)Piperidine-4-Carboxamide]
  Curve Class: 2.1
  Increased SMN2 activity: 100%

## NC(=O)C1CCN(c2ncc(-c3ccc4c(c3)OCCO4)s2)CC1 [Example 120, 1-(5-(2,3-Dihydrobenzo[B][1,4]Dioxin-6-yl)Thiazol-2-yl)Piperidine-4-Carboxamide]
  Curve Class: 1.1
  Increased SMN2 activity: 424.6%

## CC(C)COc1ccc(-c2csc(N3CCC(C(N)=O)CC3)n2)cc1 [Example 106, 1-(4-(4-Isobutoxyphenyl)Thiazol-2-yl)Piperidine-4-Carboxamide]
  Curve Class: 1.2
  Increased SMN2 activity: 54%

## Cn1ccc2cc(-c3csc(N4CCC(C(N)=O)CC4)n3)ccc21 [Example 65, 1-(4-(1-Methyl-1H-Indol-5-yl)Thiazol-2-yl)Piperidine-4-Carboxamide]
  Curve Class: 1.1
  Increased SMN2 activity: 534%

## NC(=O)C1CCN(c2nc(-c3ccccc3)cs2)CC1 [Example 30, 1-(4-Phenylthiazol-2-yl)Piperidine-4-Carboxamide]
  Curve Class: 1.1
  Increased SMN2 activity: 166.6%

## NC(=O)C1CCN(c2nc(-c3ccc(C(F)(F)F)cc3)cs2)CC1 [Example 22, 1-(4-(4-Trifluoromethylphenyl)Thiazol-2-yl)Piperidine-4-Carboxamide]
  Curve Class: 1.1
  Increased SMN2 activity: 386.1%

## CC(=O)C1CCN(c2ncc(-c3cccc(N(C)C)c3)s2)CC1 [Example 141, 1-(1-(5-(3-(Dimethylamino)Phenyl)Thiazol-2-yl)Piperidin-4-yl)Ethanone]
  Curve Class: 1.1
  Increased SMN2 activity: 224.6%

## COc1ccc(-c2csc(N3CCC(C(N)=O)CC3)n2)cc1OC [Example 83, 1-(4-(3,4-Dimethoxyphenyl)Thiazol-2-yl)Piperidine-4-Carboxamide]
  Curve Class: 2.4
  Increased SMN2 activity: 58.51%

## NC(=O)C1CCN(c2cc(-c3ccc4c(c3)OCCCO4)ncn2)CC1 [Example 142, 1-(6-(3,4-Dihydro-2H-Benzo[B][1,4]Dioxepin-7-yl)Pyrimidin-4-yl)Piperidine-4-Carboxamide]
  Curve Class: 1.1
  Increased SMN2 activity: 211.1%

## CN(C)c1ccc(-c2csc(N3CCC(C(N)=O)CC3)n2)cc1 [Example 100, 1-(4-(4-(Dimethylamino)Phenyl)Thiazol-2-yl)Piperidine-4-Carboxamide]
  Curve Class: 2.2
  Increased SMN2 activity: 64.26%

## NC(=O)C1CCN(c2ncc(-c3ccc(Cl)cc3)s2)CC1 [Example 122, 1-(5-(4-Chlorophenyl)Thiazol-2-yl)Piperidine-4-Carboxamide]
  Curve Class: 1.1
  Increased SMN2 activity: 498.3%

## NC(=O)C1CCN(c2ncc(-c3cccc(N4CCOCC4)c3)s2)CC1 [Example 139, 1-(5-(3-Morpholinophenyl)Thiazol-2-yl)Piperidine-4-Carboxamide]
  Curve Class: 1.1
  Increased SMN2 activity: 275.2%

## CN(C)c1cccc(-c2ccnc(N3CCC(C(N)=O)CC3)n2)c1 [Example 90, 1-(4-(3-(Dimethylamino)Phenyl)Pyrimidin-2-yl)Piperidine-4-Carboxamide]
  Curve Class: 1.1
  Increased SMN2 activity: 446.3%

## CN(C)c1cccc(-c2nc(N3CCC(C(N)=O)CC3)ncc2F)c1 [Example 149, 1-(4-(3-(Dimethylamino)Phenyl)-5-Fluoropyrimidin-2-yl)Piperidine-4-Carboxamide]
  Curve Class: 1.1
  Increased SMN2 activity: 373.2%
